Experimental data reported in ChEMBL document CHEMBL1201862, “PubChem BioAssay data set” (2004).
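Interpolation was linear, between the two tested concentrations surrounding the appropriate level; five concentrations were tested over 48 hours in 96-well plates. Abbreviation: GI50, concentration required for 50% inhibition of growth.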 Calls of active or inactive are those of the source. Rule as the data show it: active = GI50 up to about 1.1 µM and inactive = higher. *1 amine or outer side, *2 acyl side, *3 side chain or, on linkers, in order; H or OH if unused. Where a SMILES comes first, the peptide text is derived from it. [ ]: non-standard residue; d: D form. The star is where a group is joined. X31 = CC(=O)N(C)SCC(N[*:1])C(=O)[*:2]; Fmoc = O=C(OCC1c2ccccc2-c2ccccc21)*; For = O=C*

Columns and labels:
Assay in all cases: NCI-60 cell line screen, 48 h
[1] = system: MDA-N
[2] = system: HOP-62
[3] = system: HL-60
[4] = system: HCC 2998
[5] = system: U-251
[6] = system: T47D
[7] = system: OVCAR-5
[8] = system: KM12
[9] = system: SF-295
[10] = system: OVCAR-3
[11] = system: SNB-19
[12] = system: SK-MEL-5
[13] = system: MOLT-4
[14] = system: COLO 205
[15] = system: K562
[16] = system: MCF7
[17] = system: OVCAR-4
[18] = system: M14
[19] = system: NCI-H226
[20] = system: SR

Measured: GI50

Cc1[nH]n(-c2ccccc2)c(=O)c1C(N(CCc1ccccc1)C1=NCC(C)S1)(C(F)(F)F)C(F)(F)F (stereo not given)
inactive: [1] 8.63 µM | [2] 24.3 µM | [3] 7.69 µM | [4] 13.4 µM | [5] 7.41 µM | [6] 5.19 µM | [7] 8.65 µM | [8] 13.1 µM | [9] 9.02 µM | [10] 8.77 µM | [11] 15.5 µM | [12] 7.71 µM | [13] 20.5 µM | [14] 6.27 µM | [15] 15.2 µM | [16] 10.7 µM | [17] 10.8 µM | [18] 11.6 µM | [19] 6.28 µM | [20] 22.3 µM

O=C1NC(NCc2ccc(F)cc2)=N/C1=C\c1ccccc1Cl
inactive: [1] 16.8 µM | [2] 19.1 µM | [3] 13.4 µM | [4] 26.3 µM | [5] 14.7 µM | [6] 5.41 µM | [7] 16.8 µM | [8] 18.1 µM | [9] 17.1 µM | [10] 16.5 µM | [11] 19.8 µM | [12] 13.4 µM | [13] 12.9 µM | [14] 17.4 µM | [15] 11.9 µM | [16] 19.6 µM | [17] 23.9 µM | [18] 15.6 µM | [19] 18.1 µM | [20] 14.1 µM

O=C(NCCCN1CCN(CCCNC(=O)c2cc(-c3ccccc3)nc3ccccc23)CC1)c1cc(-c2ccccc2)nc2ccccc12
inactive: [1] 5.64 µM | [2] 16.1 µM | [3] > 32.7 µM | [4] 2.88 µM | [5] 12.5 µM | [6] 8.99 µM | [7] 29.6 µM | [8] 26.3 µM | [9] 12.3 µM | [10] 27.7 µM | [11] 14.1 µM | [12] 2.02 µM | [13] 14 µM | [14] 8.77 µM | [15] 5.02 µM | [16] 9.53 µM | [17] 17.8 µM | [18] 2.28 µM | [19] 27.7 µM | [20] 3.37 µM

CCOC(=O)Cn1nnc2ccc(Nc3nc4ccccc4nc3-c3ccccc3)cc21
inactive: [1] > 100 µM | [2] 48 µM | [3] > 100 µM | [4] 17.3 µM | [5] 71.4 µM | [6] > 100 µM | [7] > 100 µM | [8] > 100 µM | [9] 85.5 µM | [10] 60.7 µM | [11] 70 µM | [12] > 100 µM | [13] > 100 µM | [14] > 100 µM | [15] > 100 µM | [16] > 100 µM | [17] 68.9 µM | [18] 95.5 µM | [19] > 100 µM | [20] > 100 µM

Cc1nc2cc3ccccc3cc2[nH]c1=O
inactive: [1] > 100 µM | [2] 71.6 µM | [3] > 100 µM | [4] > 100 µM | [5] 55.1 µM | [6] 55.2 µM | [7] > 100 µM | [8] 85.1 µM | [9] 91.2 µM | [10] 68.1 µM | [11] 92.3 µM | [12] 96.2 µM | [13] 44 µM | [14] > 100 µM | [15] 38.8 µM | [16] 30.2 µM | [17] 51.1 µM | [18] > 100 µM | [19] 53.2 µM | [20] 78.3 µM

CC1(C)CCCCCCC2OC2CCCCCC(C)(C)C1=O (stereo not given)
inactive: [1] 35.8 µM | [2] 49.8 µM | [3] 22.4 µM | [4] 40.6 µM | [5] 24.3 µM | [6] 29.9 µM | [7] > 62.1 µM | [8] 27.8 µM | [9] 31.2 µM | [10] 34.1 µM | [11] > 89.3 µM | [12] 22.3 µM | [13] 24 µM | [14] 14.4 µM | [15] 30 µM | [16] 26.4 µM | [17] 46.2 µM | [18] 32.8 µM | [19] > 56.4 µM | [20] 27.5 µM

CC(=O)N(C)SCC(NC(=O)C(Cc1ccccc1)NC(=O)OCC1c2ccccc2-c2ccccc21)C(=O)NC(Cc1ccccc1)C(=O)NC(Cc1cn(C=O)c2ccccc12)C(=O)NC(CCCCNC(=O)OCC1c2ccccc2-c2ccccc21)C(=O)NC(C(=O)NC(CSN(C)C(C)=O)C(=O)NC(C(N)=O)C(C)O)C(C)O (stereo not given) (Fmoc-F[X31]FW(For)K(Fmoc)T[X31]T-NH2; configuration not given here)
inactive: [1] 36.7 µM | [2] > 100 µM | [3] > 100 µM | [4] > 100 µM | [5] > 100 µM | [6] > 100 µM | [7] > 100 µM | [8] 19.8 µM | [9] 89.5 µM | [10] > 100 µM | [11] 75.5 µM | [12] 55.1 µM | [13] > 100 µM | [14] 36.6 µM | [15] > 100 µM | [16] 47.4 µM | [17] > 100 µM | [18] 31 µM | [19] > 100 µM | [20] 76.9 µM
